This passage reports Dmax and DC50 results from patent publication US20250206732A1, “COMPOUNDS AND METHODS FOR THE TARGETED DEGRADATION OF KRAS” (Arvinas Operations, Inc., priority 2022, published 2025).

Each structure is given as a SMILES string. Some results are limits rather than exact numbers.

The target in the test is T1, AsPC-1 HiBiT-KRASG12D (Homo sapiens, UniProt P01116, G12D).
T1 construct: insert the HiBiT tag onto the N-terminus of one or more of the endogenous KRAS alleles; endogenous in cells; host or cells: AsPC-1 (ATCC CRL-1682), CRISPR-Cas9 knock-in clone, one tagged allele
In words: HiBiT degradation assay (G12D), AsPC-1 HiBiT-KRASG12D cells. Type of test: cell-based. To be noted: 24 hours treatment; for Dmax: ASPC1, AsPC-1 HiBiT-KRASG12D cells, maximum degradation observed; for DC50: AsPC-1 HiBiT-KRASG12D cells, HiBiT luminescence. The procedure, abridged:
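In this degradation format, an engineered AsPC-1 clone with HiBiT fused to the KRAS N-terminus is exposed to compounds for 24 hours, after which remaining tagged protein is quantified by lytic HiBiT luminescence.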
A general note: HiBiT is a short tag that completes a luciferase, so light tracks the accessible tagged protein.

T1 sequence (P01116 1-188 isoform P01116-2 G12D): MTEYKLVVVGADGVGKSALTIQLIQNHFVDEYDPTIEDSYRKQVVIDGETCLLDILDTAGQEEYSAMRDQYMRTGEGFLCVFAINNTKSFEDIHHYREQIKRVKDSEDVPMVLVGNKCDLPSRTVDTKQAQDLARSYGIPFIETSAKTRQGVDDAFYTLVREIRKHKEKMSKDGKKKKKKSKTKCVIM

For the compound `Cc1ncsc1-c1ccc([C@H](C)NC(=O)[C@@H]2C[C@@H](O)CN2C(=O)[C@@H](c2cc(OCC3CCN(CCOc4nc(N5CC6CCC(C5)N6)c5cnc(-c6cc(O)cc(Cl)c6C(F)(F)F)c(F)c5n4)CC3)no2)C(C)C)cc1` [Compound 24, (2S,4R)-1-[(2R)-2-[3-({1-[2-({7-[3-chloro-5-hydroxy-2-(trifluoromethyl)phenyl]-4-{3,8-diazabicyclo[3.2.1]octan-3-yl}-8-fluoropyrido[4,3-d]pyrimidin-2-yl}oxy)ethyl]piperidin-4-yl}methoxy)-1,2-oxazol-5-yl]-3-methylbutanoyl]-4-hydroxy-N-[(1S)-1-[4-(4-methyl-1,3-thiazol-5-yl)phenyl]ethyl]pyrrolidine-2-carboxamide], the Dmax (as a rule, the greatest extent of degradation seen) was 80 to 100% and the DC50 (as a rule, the concentration giving 50% degradation) was less than 600 nM. Regarding `CCc1cccc2cc(O)cc(-c3ncc4c(N5CC6CCC(C5)N6)nc(OC[C@@H]5CC[C@@H](COC(=O)N6CCN(c7cc([C@H](C(=O)N8C[C@H](O)C[C@H]8C(=O)N[C@@H](C)c8ccc(-c9scnc9C)cc8)C(C)C)on7)[C@H](C)C6)N5C)nc4c3F)c12` [Compound 301, [(2S,5S)-5-[[4-(3,8-diazabicyclo[3.2.1]octan-3-yl)-7-(8-ethyl-3-hydroxy-1-naphthyl)-8-fluoro-pyrido[4,3-d]pyrimidin-2-yl]oxymethyl]-1-methyl-pyrrolidin-2-yl]methyl (3R)-4-[5-[(1R)-1-[(2S,4R)-4-hydroxy-2-[[(1S)-1-[4-(4-methylthiazol-5-yl)phenyl]ethyl]carbamoyl]pyrrolidine-1-carbonyl]-2-methyl-propyl]isoxazol-3-yl]-3-methyl-piperazine-1-carboxylate], the greatest degradation seen (Dmax) is 80 to 100% and the DC50 is less than 600 nM.

In the case of `CCc1cccc2cc(O)cc(-c3ncc4c(N5CC6CCC(C5)N6)nc(OCCN5CCC(CC6CN(c7cc([C@H](C(=O)N8C[C@H](O)C[C@H]8C(=O)N[C@@H](C)c8ccc(-c9ccnn9C)cc8)C(C)C)on7)C6)CC5)nc4c3F)c12` (single isomer, unassigned) [Compound 264, (2S,4R)-1-[(2R*)-2-(3-{3-[(1-{2-[(4-{3,8-diazabicyclo[3.2.1]octan-3-yl}-7-(8-ethyl-3-hydroxynaphthalen-1-yl)-8-fluoropyrido[4,3-d]pyrimidin-2-yl)oxy]ethyl}piperidin-4-yl)methyl]azetidin-1-yl}-1,2-oxazol-5-yl)-3-methylbutanoyl]-4-hydroxy-N-[(1S)-1-[4-(1-methyl-1H-pyrazol-5-yl)phenyl]ethyl] pyrrolidine-2-carboxamide], the Dmax was in the range of 80 to 100% and the DC50 was less than 600 nM.

On to `CCc1cccc2cc(O)cc(-c3ncc4c(N5CC6CCC(C5)N6)nc(OCCN5CCC(CC6CCN(CC(=O)N[C@H](C(=O)N7C[C@H](O)C[C@H]7C(=O)N[C@@H](C)c7ccc(-c8scnc8C)cc7)C(C)(C)C)CC6)CC5)nc4c3F)c12` [Compound 274, (2S,4R)-1-[(2S)-2-(2-{4-[(1-{2-[(4-{3,8-diazabicyclo[3.2.1]octan-3-yl}-7-(8-ethyl-3-hydroxynaphthalen-1-yl)-8-fluoropyrido[4,3-d]pyrimidin-2-yl)oxy]ethyl}piperidin-4-yl)methyl]piperidin-1-yl}acetamido)-3,3-dimethylbutanoyl]-4-hydroxy-N-[(1S)-1-[4-(4-methyl-1,3-thiazol-5-yl)phenyl]ethyl]pyrrolidine-2-carboxamide], for which the Dmax was in the range of 60 to 80% and the DC50 was less than 600 nM. `CCc1cccc2cc(O)cc(-c3ncc4c(N5CCCCCC5)nc(OC[C@]56CCCN5[C@H](COC(=O)N5CCN(c7cc([C@H](C(=O)N8C[C@H](O)C[C@H]8C(=O)N[C@@H](C)c8ccc(-c9scnc9C)cc8)C(C)C)on7)[C@H](C)C5)CC6)nc4c3F)c12` [Compound 227, [(3S,8R)-8-[[4-(azepan-1-yl)-7-(8-ethyl-3-hydroxy-1-naphthyl)-8-fluoro-pyrido[4,3-d]pyrimidin-2-yl]oxymethyl]-1,2,3,5,6,7-hexahydropyrrolizin-3-yl]methyl (3R)-4-[5-[(1R)-1-[(2S,4R)-4-hydroxy-2-[[(1S)-1-[4-(4-methylthiazol-5-yl)phenyl]ethyl]carbamoyl]pyrrolidine-1-carbonyl]-2-methyl-propyl]isoxazol-3-yl]-3-methyl-piperazine-1-carboxylate] gave a Dmax of 80 to 100% and a DC50 of less than 600 nM. As to `CCc1cccc2cc(O)cc(-c3ncc4c(N5CC6CCC(C5)N6)nc(OCCN5CCC(CCC6CN(c7cc([C@@H](C(=O)N8C[C@H](O)C[C@H]8C(=O)N[C@@H](C)c8ccc(-c9scnc9C)cc8)C(C)C)on7)C6)CC5)nc4c3F)c12` (single isomer, unassigned) [Compound 253, (2S,4R)-1-[(2R*)-2-(3-{3-[2-(1-{2-[(4-{3,8-diazabicyclo[3.2.1]octan-3-yl}-7-(8-ethyl-3-hydroxynaphthalen-1-yl)-8-fluoropyrido[4,3-d]pyrimidin-2-yl)oxy]ethyl}piperidin-4-yl)ethyl]azetidin-1-yl}-1,2-oxazol-5-yl)-3-methylbutanoyl]-4-hydroxy-N-[(1S)-1-[4-(4-methyl-1,3-thiazol-5-yl)phenyl]ethyl] pyrrolidine-2-carboxamide], the Dmax was in the range of 20 to 60% and the DC50 lay in the range of 1000 to 3000 nM. `CCc1cccc2cc(O)cc(-c3ncc4c(N5CC6CCC(C5)N6)nc(OCCN5CCC(CN6CCN(c7cc([C@H](C(=O)N8C[C@H](O)C[C@H]8C(=O)N[C@@H](C)c8ccc(-c9scnc9C)cc8)C(C)C)on7)CC6)CC5)nc4c3F)c12` (relative stereo) [Compound 276] showed a maximal degradation (Dmax) of 80 to 100% and a DC50 of less than 600 nM. As to `CCc1cccc2cc(O)cc(-c3ncc4c(N5CC6CCC(C5)N6)nc(OC[C@]56CCCN5C[C@H](Oc5cc([C@H](C(=O)N7C[C@H](O)C[C@H]7C(=O)N[C@@H](C)c7ccc(-c8scnc8C)cc7)C(C)C)on5)CC6)nc4c3F)c12` [Compound 318, (2S,4R)-1-[(2R)-2-[3-[[(6R,8aR)-8a-[[4-(3,8-diazabicyclo[3.2.1]octan-3-yl)-7-(8-ethyl-3-hydroxy-1-naphthyl)-8-fluoro-pyrido[4,3-d]pyrimidin-2-yl]oxymethyl]-2,3,5,6,7,8-hexahydro-1H-indolizin-6-yl]oxy]isoxazol-5-yl]-3-methyl-butanoyl]-4-hydroxy-N-[(1S)-1-[4-(4-methylthiazol-5-yl)phenyl]ethyl]pyrrolidine-2-carboxamide], the Dmax lay in the range of 20 to 60% and the DC50 fell in the range of 1000 to 3000 nM. `CCc1cccc2cc(O)cc(-c3ncc4c(N5CC6CCC(C5)N6)nc(OC[C@@]56CCCN5[C@H](COC(=O)NCc5cc([C@@H](C(=O)N7C[C@H](O)C[C@H]7C(=O)N[C@@H](C)c7ccc(-c8scnc8C)cc7)C(C)C)on5)CC6)nc4c3F)c12` [Compound 100, [(3S,7aS)-7a-{[(4-{3,8-diazabicyclo[3.2.1]octan-3-yl}-7-(8-ethyl-3-hydroxynaphthalen-1-yl)-8-fluoropyrido[4,3-d]pyrimidin-2-yl)oxy]methyl}-hexahydro-1H-pyrrolizin-3-yl]methyl N-({5-[(2S)-1-[(2S,4R)-4-hydroxy-2-{[(1S)-1-[4-(4-methyl-1,3-thiazol-5-yl)phenyl]ethyl]carbamoyl}pyrrolidin-1-yl]-3-methyl-1-oxobutan-2-yl]-1,2-oxazol-3-yl}methyl) carbamate] returned a Dmax of 20 to 60% and a DC50 of 1000 to 3000 nM.

Take `CCc1cccc2cc(O)cc(-c3ncc4c(N5CC6CCC(C5)N6)nc(OC[C@@]56CCCN5[C@H](COC(=O)N(C)Cc5cc([C@@H](C(=O)N7C[C@H](O)C[C@H]7C(=O)N[C@@H](C)c7ccc(-c8scnc8C)cc7)C(C)C)on5)CC6)nc4c3F)c12` [Compound 91, [(3S,7aS)-7a-{[(4-{3,8-diazabicyclo[3.2.1]octan-3-yl}-7-(8-ethyl-3-hydroxynaphthalen-1-yl)-8-fluoropyrido[4,3-d]pyrimidin-2-yl)oxy]methyl}-hexahydro-1H-pyrrolizin-3-yl]methyl N-({5-[(2S)-1-[(2S,4R)-4-hydroxy-2-{[(1S)-1-[4-(4-methyl-1,3-thiazol-5-yl)phenyl]ethyl]carbamoyl}pyrrolidin-1-yl]-3-methyl-1-oxobutan-2-yl]-1,2-oxazol-3-yl}methyl)-N-methylcarbamate]: the Dmax lay within 20 to 60% and the DC50 lay in the range of 1000 to 3000 nM. Compound `CCc1cccc2cc(O)cc(-c3ncc4c(N5CC6CCC(C5)N6)nc(OC[C@]56CCCN5[C@H](COc5cc([C@H](C(=O)N7C[C@H](O)C[C@H]7C(=O)N[C@@H](C)c7ccc(-c8scnc8C)cc7)C(C)C)on5)CC6)nc4c3F)c12` [Compound 323, (2S,4R)-1-[(2R)-2-(3-{[(3S,7aR)-7a-{[(4-{3,8-diazabicyclo[3.2.1]octan-3-yl}-7-(8-ethyl-3-hydroxynaphthalen-1-yl)-8-fluoropyrido[4,3-d]pyrimidin-2-yl)oxy]methyl}-hexahydro-1H-pyrrolizin-3-yl]methoxy}-1,2-oxazol-5-yl)-3-methylbutanoyl]-4-hydroxy-N-[(1S)-1-[4-(4-methyl-1,3-thiazol-5-yl)phenyl]ethyl]pyrrolidine-2-carboxamide] gave a Dmax of 60 to 80%. On to `CCc1cccc2cc(O)cc(-c3ncc4c(N5CC6CCC(C5)N6)nc(OCCN5CCC[C@H](CN6CCN(c7cc([C@H](C(=O)N8C[C@H](O)C[C@H]8C(=O)N[C@@H](C)c8ccc(-c9scnc9C)cc8)C(C)C)on7)CC6)C5)nc4c3F)c12` [Compound 243, (2S,4R)-1-[(2R)-2-[3-[4-[(3R)-1-[2-[[4-(3,8-diazabicyclo[3.2.1]octan-3-yl)-7-(8-ethyl-3-hydroxy-1-naphthyl)-8-fluoro-pyrido[4,3-d]pyrimidin-2-yl]oxyethyl]-3-piperidyl]methyl]piperazin-1-yl]isoxazol-5-yl]-3-methyl-butanoyl]-4-hydroxy-N-[(1S)-1-[4-(4-methylthiazol-5-yl)phenyl]ethyl]pyrrolidine-2-carboxamide], for which the Dmax was 80 to 100% and the DC50 is less than 600 nM.
